According to patent publication US10952992B2, “Methods of treating intraocular pressure with activators of Tie-2” (Aerpio Pharmaceuticals, Inc., priority 2015, dated 2021):
Several values for one entry are separate records, joined by “and”; a condition that tells them apart may be missing. Identical values can stand only once.

Assay: Example 2 iris, retina, choroid and cornea tissue concentrations
Type: in vivo, male New Zealand White rabbits
Conditions: for Average / Conc. (ng/g) OS / Conc. (ng/mL) OS / Conc. (ng/mL) OD / Conc. (ng/g) OD: subcutaneous 5 mg/kg/dose (Group 3), free acid; for Average Peak Concentration, Choroid / Average Peak Concentration, Cornea / Average Peak Concentration, Iris / Average Peak Concentration, Retina: suspension; for Choroid Conc. OS / Choroid Conc. OD: choroid homogenate; for Choroid Conc. OD: right eye
Description: To measure the concentration of Compound 1 in plasma and ocular tissues following topical ocular, subcutaneous, and intravitreal administration, New Zealand White rabbits were administered Compound 1, and plasma and ocular samples were collected at pre-determined time points. Compound 1 formulations were prepared fresh on each day of dosing.
Ocular tissue samples from both eyes of each animal were collected and weights were recorded. Plasma and ocular tissue sample concentrations of Compound 1 were determined by LC-MS/MS.
Animals were anesthetized for ocular (topical) and intravitreal dosing following the 12IA7 IACUC protocol. Each rabbit received a bolus dose of test formulation either via topical ocular administration 3 times daily on Days 1 and 2 (at 0, 6, and 12 hours), and once on Day 3 (at 0 hours) into both eyes; via intravitreal administration into both eyes once on Day 1 (at 0 hours); or via subcutaneous administration 2 times daily on Days 1 and 2 (at 0 and 8 hours) and once daily on Day 3 (at 0 hours). Doses were given within an approximately 1 hour window each day where applicable.
On Day 1, for intravitreal administration, or on Day 3, for topical ocular and subcutaneous administration, at the appropriate ocular tissue collection time points, animals were euthanized and both eyes were enucleated immediately. Following enucleation, each eye was rinsed with phosphate-buffered saline. Ocular tissue samples from both eyes of each animal were collected at predetermined time points and weights were recorded. All the samples were frozen immediately on dry ice, and stored at −60° C. to −80° C. pending bioanalysis.
An LC-MS/MS method was developed for the determination of Compound 1 in rabbit aqueous tissues (plasma, aqueous and vitreous humor) and solid ocular tissue samples. A pre-study standard curve was analyzed to determine the specificity, range, and lower limit of quantitation of the method. Plasma and tissue homogenate study samples were extracted and analyzed. All the samples were treated identically to the standards.
One eight-point standard curve was used in each analytical batch. To be accepted, each batch must have had at least five of eight standards with accuracy within ±20% of nominal, except at the lower limit of quantification (LLOQ), where ±25% was acceptable.

[1] = Choroid, 1 hr, listed as Compound 1 (free acid)
[2] = Group 3: subcutaneous 5 mg/kg/dose
[3] = Group 5: intravitreal 1.54 mg/kg/dose

Average (Choroid, 0.5 hr): 127 ng/g | Conc. (ng/g) OS (Choroid, 0.5 hr): 83.1 ng/g and 154 ng/g | Conc. (ng/mL) OS (Choroid, 0.5 hr): 7.55 ng/mL and 14.0 ng/mL | Average (Choroid, 1 hr): 83.3 ng/g | Conc. (ng/mL) OD (Choroid, 1 hr): 8.65 ng/mL | Conc. (ng/g) OD [1]: 66.4 ng/g and 95.2 ng/g | Conc. (ng/g) OS [1]: 88.1 ng/g and 83.6 ng/g | Conc. (ng/mL) OD [1]: 6.04 ng/mL | Conc. (ng/mL) OS [1]: 8.01 ng/mL and 7.60 ng/mL | Average (Choroid, 2 hr): 47.7 ng/g | Conc. (ng/g) OD (Choroid, 2 hr): 36.5 ng/g and 46.9 ng/g | Conc. (ng/g) OS (Choroid, 2 hr): 53.2 ng/g and 54.3 ng/g | Conc. (ng/mL) OD (Choroid, 2 hr): 3.32 ng/mL and 4.26 ng/mL | Conc. (ng/mL) OS (Choroid, 2 hr): 4.84 ng/mL and 4.94 ng/mL | Average (Choroid, 4 hr): 61.0 ng/g | Conc. (ng/g) OD (Choroid, 4 hr): 53.0 ng/g and 51.2 ng/g | Conc. (ng/mL) OD (Choroid, 4 hr): 4.82 ng/mL and 4.65 ng/mL | Average (Cornea, 0.5 hr): 7.96 ng/g | Conc. (ng/g) OD (Cornea, 0.5 hr): 6.05 ng/g | Conc. (ng/g) OS (Cornea, 0.5 hr): 9.87 ng/g | Average (Cornea, 1 hr): 12.2 ng/g | Conc. (ng/g) OD (Cornea, 1 hr): 12.2 ng/g | Conc. (ng/mL) OS (Cornea, 1 hr): BLOQ | Average (Cornea, 2 hr): 5.65 ng/g | Conc. (ng/g) OD (Cornea, 2 hr): 5.65 ng/g | Conc. (ng/mL) OS (Cornea, 2 hr): BLOQ | Average (Cornea, 4 hr): 15.8 ng/g | Conc. (ng/g) OD (Cornea, 4 hr): 10.4 ng/g and 9.32 ng/g | Conc. (ng/mL) OD (Cornea, 4 hr): 0.942 ng/mL and 0.847 ng/mL | Average Peak Concentration, Choroid [2]: 127 ng/g | Average Peak Concentration, Cornea [2]: 7.96 ng/g | Average Peak Concentration, Iris [2]: 50.3 ng/g | Average Peak Concentration, Retina [2]: 38.7 ng/g | Average Peak Concentration, Choroid [3]: 663575 ng/g | Average Peak Concentration, Cornea [3]: 54560 ng/g | Average Peak Concentration, Iris [3]: 210650 ng/g | Average Peak Concentration, Retina [3]: 1988250 ng/g | Average (Iris, 0.5 hr): 50.3 ng/g | Conc. (ng/g) OS (Iris, 0.5 hr): 47.0 ng/g and 38.9 ng/g | Conc. (ng/mL) OS (Iris, 0.5 hr): 4.27 ng/mL and 3.54 ng/mL | Average (Iris, 1 hr): 58.0 ng/g | Conc. (ng/g) OS (Iris, 1 hr): 47.6 ng/g and 34.3 ng/g | Conc. (ng/mL) OS (Iris, 1 hr): 4.33 ng/mL and 3.12 ng/mL | Average (Iris, 2 hr): 27.6 ng/g | Conc. (ng/g) OD (Iris, 2 hr): 30.5 ng/g and 32.0 ng/g | Conc. (ng/g) OS (Iris, 2 hr): 29.5 ng/g | Conc. (ng/mL) OD (Iris, 2 hr): 2.77 ng/mL and 2.91 ng/mL | Conc. (ng/mL) OS (Iris, 2 hr): 2.68 ng/mL and 1.67 ng/mL | Average (Iris, 4 hr): 17.5 ng/g | Conc. (ng/g) OD (Iris, 4 hr): 26.5 ng/g and 17.9 ng/g | Conc. (ng/g) OS (Iris, 4 hr): 16.9 ng/g and 8.73 ng/g | Conc. (ng/mL) OD (Iris, 4 hr): 2.41 ng/mL and 1.63 ng/mL | Conc. (ng/mL) OS (Iris, 4 hr): 1.54 ng/mL and 0.794 ng/mL | Average (Retina, 0.5 hr): 38.7 ng/g | Average (Retina, 1 hr): 10.2 ng/g | Conc. (ng/g) OD (Retina, 1 hr): 10.4 ng/g | Conc. (ng/g) OS (Retina, 1 hr): 6.93 ng/g and 13.3 ng/g | Conc. (ng/mL) OS (Retina, 1 hr): 0.63 ng/mL and 1.21 ng/mL | Average (Retina, 2 hr): 10.5 ng/g | Conc. (ng/g) OD (Retina, 2 hr): 6.31 ng/g | Conc. (ng/g) OS (Retina, 2 hr): 6.93 ng/g | Average (Retina, 4 hr): 35.3 ng/g | Conc. (ng/mL) OD (Retina, 4 hr): BLOQ | Choroid Conc. OS (6.0 hr, left eye, individual animals, intravitreal 2.5 mg/eye (~1.54 mg/kg), group 5): 63400 ng/mL and 69700 ng/mL | Choroid Conc. OD (6.0 hr, individual animals, intravitreal 2.5 mg/eye (~1.54 mg/kg), group 5): 32800 ng/mL and 75400 ng/mL | Choroid Conc. OS (24 hr, left eye, individual animals, intravitreal 2.5 mg/eye (~1.54 mg/kg), group 5): 28400 ng/mL and 43500 ng/mL | Choroid Conc. OD (24 hr, individual animals, intravitreal 2.5 mg/eye (~1.54 mg/kg), group 5): 15200 ng/mL and 57500 ng/mL | Choroid Conc. OS (48 hr, left eye, individual animals, intravitreal 2.5 mg/eye (~1.54 mg/kg), group 5): 9320 ng/mL and 14800 ng/mL | Choroid Conc. OD (48 hr, individual animals, intravitreal 2.5 mg/eye (~1.54 mg/kg), group 5): 9940 ng/mL and 9580 ng/mL | Choroid Conc. OS (72 hr, left eye, individual animals, intravitreal 2.5 mg/eye (~1.54 mg/kg), group 5): 2660 ng/mL and 2910 ng/mL | Choroid Conc. OD (72 hr, individual animals, intravitreal 2.5 mg/eye (~1.54 mg/kg), group 5): 2180 ng/mL and 2270 ng/mL | Choroid tissue Conc. Avg. (choroid, 6.0 hr, average, intravitreal 2.5 mg/eye (~1.54 mg/kg), group 5): 663575 ng/g | Choroid tissue Conc. OS (choroid, 6.0 hr, left eye, individual animals, intravitreal 2.5 mg/eye (~1.54 mg/kg), group 5): 697400 ng/g and 766700 ng/g
Structure (SMILES): COC(=O)N[C@@H](Cc1ccccc1)C(=O)N[C@@H](Cc1ccc(NS(=O)(=O)O)cc1)c1csc(-c2cccs2)n1 [Compound 1 free acid]
